Patent publication US20250223306A1, “TEAD INHIBITORS AND METHODS OF USE” (Sporos BioDiscovery, Inc., priority 2022, published 2025)
pEC50: −log10 of the molar value.

Tests used:
Type in all cases: cell-based
Mero82 cells = assay: Mero82 proliferation and cell viability assay (CTG); conditions: Mero82 cell line, 144 hours
Protocol: Mero 82 cells were trypsinised, counted and plated at 400 cells/well in 200 μl of growth media in 96 well flat bottom tissue culture treated plates. The plated cells were incubated overnight at 37° C., 5% CO2 before being treated with compounds in triplicate for each assay point. 50 μl of the serially diluted compound was added to each well giving a final DMSO concentration of 0.5% per well and a total volume of 250 μl per well. The treated cells were incubated for 144 hours (6 days) at 37° C., 5% CO2. Following compound treatment, the remaining viable cells were detected using the Promega CellTiter-Glo 2.0 assay as follows: 150 μl of media was removed from each of the wells to be assayed and 100 μl of room temperature CellTiter-Glo 2.0 reagent was added. The plate was placed on an orbital shaker at 500 rpm at room temperature for 2 minutes, and then incubated without shaking for a further 10 minutes at room temperature. 150 μl of cell lysate was removed from each well and dispensed into a single well of a white opaque 96 well plate. Luminescence at 545 nm was read using a BMG CLARIOstar plate reader. The luminescent signal was directly proportional to number of viable cells, the percent of viable cells relative to the DMSO control was then calculated for each assay point. Percent viability relative to DMSO control is plotted against compound concentration and a curve fitted with non-linear regression in GraphPad Prism software. IC50 values were calculated using GraphPad Prism software as follows: For Relative IC50 values a non-constrained four-parameter logistic curve fit was used (Sigmoidal, 4PL, X is concentration). For Absolute IC50 values the baseline was constrained to Y=0 (Absolute IC50, X is concentration). Area Under the Curve (AUC): Prism computes area-under-the-curve by the trapezoidal method. The analysis sees a fitted curve as simply a series of connected XY points. Prism simply computes the area under the “curve” defined by connecting the points by straight lines. The units of the AUC are the units of the Y axis times units of the X axis.

LOU-NH91 cells = assay: LOU-NH91 proliferation and cell viability assay (CTG); conditions: LOU-NH91 cell line, 216 hours
Protocol: LOU-NH91 cells were trypsinised, counted and plated at the specified cell density in 200 μl of growth media in 96 well flat bottom tissue culture treated plates. The plated cells were incubated overnight at 37° C., 5% CO2 before being treated with compounds in triplicate for each assay point. 50 μl of the serially diluted compound was added to each well giving a final DMSO concentration of 0.5% per well and a total volume of 250 μl per well. The treated cells were incubated for 216 hours (9 days) at 37° C., 5% CO2. Following compound treatment, the remaining viable cells were detected using the Promega CellTiter-Glo 2.0 assay as follows: 150 μl of media was removed from each of the wells to be assayed and 100 μl of room temperature CellTiter-Glo 2.0 reagent was added. The plate was placed on an orbital shaker at 500 rpm at room temperature for 2 minutes, and then incubated without shaking for a further 10 minutes at room temperature. 150 μl of cell lysate was removed from each well and dispensed into a single well of a white opaque 96 well plate. Luminescence at 545 nm was read using a BMG CLARIOstar plate reader. The luminescent signal was directly proportional to number of viable cells, the percent of viable cells relative to the DMSO control was then calculated for each assay point. Percent viability relative to DMSO control was plotted against compound concentration and a curve fitted with non-linear regression in GraphPad Prism software. EC50 and IC50 values were calculated using GraphPad Prism software as follows: For EC50 values a non-constrained four-parameter logistic curve fit was used (Sigmoidal, 4PL, X is concentration). For Absolute IC50 values the baseline was constrained to Y=0 (Absolute IC50, X is concentration). Area Under the Curve (AUC): Prism computes area-under-the-curve by the trapezoidal method. The analysis sees a fitted curve as simply a series of connected XY points. Prism simply computes the area under the “curve” defined by connecting the points by straight lines. The units of the AUC are the units of the Y axis times units of the X axis.

SDM103T2 cells = assay: SDM103T2 proliferation and cell viability assay (CTG); conditions: SDM103T2 cell line, 144 hours
Protocol: SDM103T2 cells were trypsinised, counted and plated at the specified cell density in 200 μl of growth media in 96 well flat bottom tissue culture treated plates. The plated cells were incubated overnight at 37° C., 5% CO2 before being treated with compounds in triplicate for each assay point. 50 μl of the serially diluted compound was added to each well giving a final DMSO concentration of 0.5% per well and a total volume of 250 μl per well. The treated cells were incubated for 144 hours (6 days) at 37° C., 5% CO2. Following compound treatment the remaining viable cells were detected using the Promega CellTiter-Glo 2.0 assay as follows: 150 μl of media was removed from each of the wells to be assayed and 100 μl of room temperature CellTiter-Glo 2.0 reagent was added. The plate was placed on an orbital shaker at 500 rpm at room temperature for 2 minutes, and then incubated without shaking for a further 10 minutes at room temperature. 150 μl of cell lysate was removed from each well and dispensed into a single well of a white opaque 96 well plate. Luminescence at 545 nm was read using a BMG CLARIOstar plate reader. The luminescent signal was directly proportional to number of viable cells, the percent of viable cells relative to the DMSO control was then calculated for each assay point. Percent viability relative to DMSO control was plotted against compound concentration and a curve fitted with non-linear regression in GraphPad Prism software. EC50 and IC50 values were calculated using GraphPad Prism software as follows: For EC50 values a non-constrained four-parameter logistic curve fit was used (Sigmoidal, 4PL, X is concentration). For Absolute IC50 values the baseline was constrained to Y=0 (Absolute IC50, X is concentration). Area Under the Curve (AUC): Prism computes area-under-the-curve by the trapezoidal method. The analysis sees a fitted curve as simply a series of connected XY points. Prism simply computes the area under the “curve” defined by connecting the points by straight lines. The units of the AUC are the units of the Y axis times units of the X axis.

How did the pEC50 (Mero82 cells) turn out when `C[C@H](NC(=O)c1cnc2c(C3=CC[C@@H](C(F)(F)F)CC3)cccc2c1)c1ncco1` (single isomer, unassigned) [Compound 19, N-(1-(oxazol-2-yl)ethyl)-8-(4-(trifluoromethyl)cyclohex-1-en-1-yl)quinoline-3-carboxamide] was run?
The pEC50 was > 6.70.

What about the pEC50 (LOU-NH91 cells) of the same compound?
The pEC50 was > 6.70.

What about the pEC50 (SDM103T2 cells) of the same compound?
Its pEC50 is > 6.70.

`C[C@H](NC(=O)c1cnc2c(C3=CC[C@@H](C(F)(F)F)CC3)cccc2c1)c1ncco1` (single isomer, unassigned) [Compound 20, N-(1-(oxazol-2-yl)ethyl)-8-(4-(trifluoromethyl)cyclohex-1-en-1-yl)quinoline-3-carboxamide] was tested. Which pEC50 (LOU-NH91 cells) did it give?
Its pEC50 is > 6.70.

With `FC(F)(F)c1ccc(CN2CCC(C3CC(Br)=NO3)CC2)cc1` (stereo not drawn) [Compound 1-2, reference compound] as the compound, how does the pEC50 (Mero82 cells) read?
Its pEC50 is < 6.00.

What about the pEC50 (LOU-NH91 cells) of the same compound?
The pEC50 was > 6.70.

And the pEC50 (SDM103T2 cells)?
Its pEC50 is < 6.00.

`C=CC(=O)Nc1ccc(C)c(Oc2ccc(Cl)cc2)c1` [Compound 1-3, reference compound] was tested. Which pEC50 (Mero82 cells) did it give?
The pEC50 was > 6.70.

And the pEC50 (LOU-NH91 cells)?
Its pEC50 is > 6.70.

And the pEC50 (SDM103T2 cells)?
The pEC50 was > 6.70.

With `C[C@H](CO)NC(=O)c1cnc2c(C3=CCC(C(F)(F)F)CC3)cccc2c1` (stereo partly drawn) [Compound 7, N—((R)-1-hydroxypropan-2-yl)-8-(4-(trifluoromethyl)cyclohex-1-en-1-yl)quinoline-3-carboxamide] as the compound, how does the pEC50 (Mero82 cells) read?
Its pEC50 is > 6.70.

What about the pEC50 (LOU-NH91 cells) of the same compound?
The pEC50 was > 6.70.

And the pEC50 (SDM103T2 cells)?
Its pEC50 is > 6.70.

With `O=C(NCc1ncco1)c1cnc2c(C3=CCC(C(F)(F)F)CC3)cccc2c1` (stereo not drawn) [Compound 11, N-(oxazol-2-ylmethyl)-8-(4-(trifluoromethyl)cyclohex-1-en-1-yl)quinoline-3-carboxamide] as the compound, how does the pEC50 (Mero82 cells) read?
Its pEC50 is > 6.70.

And the pEC50 (SDM103T2 cells)?
The pEC50 was > 6.70.

With `O=C(NCc1ccn[nH]1)c1cnc2c(C3=CCC(C(F)(F)F)CC3)cccc2c1` (stereo not drawn) [Compound 47, N-((1H-pyrazol-5-yl)methyl)-8-(4-(trifluoromethyl)cyclohex-1-en-1-yl)quinoline-3-carboxamide] as the compound, how does the pEC50 (Mero82 cells) read?
The pEC50 was > 6.70.

And the pEC50 (LOU-NH91 cells)?
Its pEC50 is > 6.70.

What about the pEC50 (SDM103T2 cells) of the same compound?
The pEC50 was > 6.70.

How did the pEC50 (Mero82 cells) turn out when `COC[C@H](CO)NC(=O)c1cnc2c(C3=CCC(C(F)(F)F)CC3)cccc2c1` (stereo partly drawn) [Compound 62, N—((S)-1-hydroxy-3-methoxypropan-2-yl)-8-(4-(trifluoromethyl)cyclohex-1-en-1-yl)quinoline-3-carboxamide] was run?
The pEC50 was > 6.70.

What about the pEC50 (LOU-NH91 cells) of the same compound?
The pEC50 was > 6.70.

What about the pEC50 (SDM103T2 cells) of the same compound?
Its pEC50 is > 6.70.

What does the source list for `COc1cc(C2=CCC(C(F)(F)F)CC2)c2ncc(C(=O)N[C@H](C)c3ncco3)cc2c1` (stereo partly drawn) [Compound 109, 6-methoxy-N—((R)-1-(oxazol-2-yl)ethyl)-8-(4-(trifluoromethyl)cyclohex-1-en-1-yl)quinoline-3-carboxamide]?
pEC50 (Mero82 cells): > 6.70; pEC50 (LOU-NH91 cells): > 6.70; pEC50 (SDM103T2 cells): > 6.70

Which results are given for `COc1cc(C2=CCC(C(F)(F)F)CC2)c2ncc(C(=O)N[C@H](C)CO)cc2c1` (stereo partly drawn) [Compound 110, N—((R)-1-hydroxypropan-2-yl)-6-methoxy-8-(4-(trifluoromethyl)cyclohex-1-en-1-yl)quinoline-3-carboxamide]?
pEC50 (Mero82 cells): > 6.70; pEC50 (SDM103T2 cells): > 6.70

How did the pEC50 (Mero82 cells) turn out when `C[C@H](CO)NC(=O)c1cnc2c(C3=CCC4(CC3)CC(F)(F)C4)cccc2c1` [Compound 165, (R)-8-(2,2-difluorospiro[3.5]non-6-en-7-yl)-N-(1-hydroxypropan-2-yl)quinoline-3-carboxamide] was run?
Its pEC50 is > 6.70.

What about the pEC50 (SDM103T2 cells) of the same compound?
The pEC50 was > 6.70.

With `C[C@@H](NC(=O)c1cnc2c(C3=CCC4(CC3)CC4)cccc2c1)c1ncco1` [Compound 166, (R)—N-(1-(oxazol-2-yl)ethyl)-8-(spiro[2.5]oct-5-en-6-yl)quinoline-3-carboxamide] as the compound, how does the pEC50 (Mero82 cells) read?
The pEC50 was > 6.70.

What about the pEC50 (SDM103T2 cells) of the same compound?
Its pEC50 is > 6.70.
